According to patent US11254690B2, “PTEFb inhibiting macrocyclic compounds” (BAYER AKTIENGESELLSCHAFT, priority 2017, dated 2022):

Key:
CDK2/CycE = biological target: T1, CDK2/CycE (Homo sapiens, UniProt P24941); test: CDK2/CycE high ATP kinase assay (TR-FRET, 2 mM ATP); format: biochemical; conditions: Method 2b
T1 construct: GST; purchased ProQinase GmbH (Freiburg, Germany); host or cells: insect cells (Sf9)
Protocol: 2b. CDK2/CycE High ATP Kinase Assay
CDK2/CycE-inhibitory activity of compounds of the present invention at 2 mM adenosine-tri-phosphate (ATP) was quantified employing the CDK2/CycE TR-FRET (TR-FRET=Time Resolved Fluorescence Energy Transfer) assay as described in the following paragraphs.
Recombinant fusion proteins of GST and human CDK2 and of GST and human CycE, expressed in insect cells (Sf9) and purified by Glutathion-Sepharose affinity chromatography, were purchase from ProQinase GmbH (Freiburg, Germany). As substrate for the kinase reaction biotinylated peptide biotin-Ttds-YISPLKSPYKISEG (C-terminus in amid form) was used which can be purchased e.g. form the company JERINI peptide technologies (Berlin, Germany).
(§1) For the assay 50 nl of a 100 fold concentrated solution of the test compound in DMSO was pipetted into either a black low volume 384 well microtiter plate or a black 1536 well microtiter plate (both Greiner Bio-One, Frickenhausen, Germany), 2 μl of a solution of CDK2/CycE in aqueous assay buffer [50 mM Tris/HCl pH 8.0, 10 mM MgCl2, 1.0 mM dithiothreitol, 0.1 mM sodium ortho-vanadate, 0.01% (v/v) Nonidet-P40 (Sigma)] were added and the mixture was incubated for 15 min at 22° C. to allow pre-binding of the test compounds to the enzyme before the start of the kinase reaction. […] The concentration of CDK2/CycE was adjusted depending of the activity of the enzyme lot and was chosen appropriate to have the assay in the linear range, typical concentrations were about 10 ng/ml. The reaction was stopped by the addition of 3 μl of a solution of TR-FRET detection reagents (0.333 μM streptavidine-XL665 [Cisbio Bioassays, Codolet, France] and 1.67 nM anti-RB(pSer807/pSer811)-antibody from BD Pharmingen [#558389] and 2 nM LANCE EU-W1024 labeled anti-mouse IgG antibody [Perkin-Elmer, product no. AD0077, as an alternative a Terbium-cryptate-labeled anti-mouse IgG antibody from Cisbio Bioassays can be used]) in an aqueous EDTA-solution (167 mM EDTA, 0.2% (w/v) bovine serum albumin in 100 mM HEPES pH 7.5).
(§2) The resulting mixture was incubated 1 h at 22° C. to allow the formation of complex between the phosphorylated biotinylated peptide and the detection reagents. Subsequently the amount of phosphorylated substrate was evaluated by measurement of the resonance energy transfer from the Eu-chelate to the streptavidine-XL. Therefore, the fluorescence emissions at 620 nm and 665 nm after excitation at 350 nm was measured in a TR-FRET reader, e.g. a Pherastar (BMG Labtechnologies, Offenburg, Germany) or a Viewlux (Perkin-Elmer). The ratio of the emissions at 665 nm and at […] was taken as the measure for the amount of phosphorylated substrate. The data were normalised (enzyme reaction without inhibitor=0% inhibition, all other assay components but no enzyme=100% inhibition).

CDK9/CycT1 = biological target: T2, CDK9/CycT1 (Homo sapiens, UniProt P50750); test: CDK9/CycT1 high ATP kinase assay (TR-FRET, 2 mM ATP); format: biochemical; conditions: for IC50: 2 mM ATP, Method 1b, lower limit for IC50s about 1-2 nM; for Selectivity high ATP CDK9 over high ATP CDK2: IC50 (high ATP CDK2)/IC50 (high ATP CDK9): ratio from Methods 1b and 2b, minimal values for IC50s near the assay limit
T2 construct: Recombinant full-length His-tagged human CDK9 and CycT1; His; purchased Life Technologies PV4131; host or cells: insect cells
T2 sequence (P50750 whole entry): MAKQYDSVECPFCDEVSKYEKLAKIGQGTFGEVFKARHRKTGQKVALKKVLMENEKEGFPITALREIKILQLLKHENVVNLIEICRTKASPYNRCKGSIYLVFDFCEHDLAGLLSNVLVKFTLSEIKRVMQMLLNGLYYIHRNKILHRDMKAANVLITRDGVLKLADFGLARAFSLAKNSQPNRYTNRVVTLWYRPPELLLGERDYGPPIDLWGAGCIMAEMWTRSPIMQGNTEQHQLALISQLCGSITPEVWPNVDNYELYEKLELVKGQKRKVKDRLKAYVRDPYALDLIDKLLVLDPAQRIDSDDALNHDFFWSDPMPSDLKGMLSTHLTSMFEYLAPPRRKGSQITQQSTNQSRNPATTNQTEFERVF
T2 sequence (O60563 whole entry partner): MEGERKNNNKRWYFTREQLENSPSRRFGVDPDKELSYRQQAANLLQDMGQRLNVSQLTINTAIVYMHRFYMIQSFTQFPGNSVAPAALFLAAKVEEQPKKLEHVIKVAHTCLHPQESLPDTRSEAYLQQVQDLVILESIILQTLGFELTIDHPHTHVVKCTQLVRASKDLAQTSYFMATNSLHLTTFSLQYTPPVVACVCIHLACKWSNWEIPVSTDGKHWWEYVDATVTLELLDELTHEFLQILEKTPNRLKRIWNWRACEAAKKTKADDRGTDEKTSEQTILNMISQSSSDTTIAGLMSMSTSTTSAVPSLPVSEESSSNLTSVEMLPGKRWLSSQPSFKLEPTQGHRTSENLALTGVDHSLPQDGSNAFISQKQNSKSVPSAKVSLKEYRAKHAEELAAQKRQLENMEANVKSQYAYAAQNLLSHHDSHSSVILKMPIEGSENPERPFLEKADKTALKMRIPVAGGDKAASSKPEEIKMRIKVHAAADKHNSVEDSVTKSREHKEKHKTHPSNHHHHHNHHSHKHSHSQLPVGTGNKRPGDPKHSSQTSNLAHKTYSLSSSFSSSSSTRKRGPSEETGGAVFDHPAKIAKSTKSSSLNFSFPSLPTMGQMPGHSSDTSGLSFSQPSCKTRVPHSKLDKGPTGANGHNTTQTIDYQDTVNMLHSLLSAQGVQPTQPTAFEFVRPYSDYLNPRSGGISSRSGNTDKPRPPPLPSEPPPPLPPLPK
Protocol: 1b. CDK9/CycT1 High ATP Kinase Assay
CDK9/CycT1-inhibitory activity of compounds of the present invention at a high ATP concentration after preincubation of enzyme and test compounds was quantified employing the CDK9/CycT1 TR-FRET assay as described in the following paragraphs.
Recombinant full-length His-tagged human CDK9 and CycT1, expressed in insect cells and purified by Ni-NTA affinity chromatography, were purchased from Life Technologies (Cat. No PV4131). As substrate for the kinase reaction biotinylated peptide biotin-Ttds-YISPLKSPYKISEG (C-terminus in amide form) was used which can be purchased e.g. form the company JERINI peptide technologies (Berlin, Germany).
as §1, with “CDK9/CycT1” for “CDK2/CycE”, “in the range of 0.5 μg/ml.” for “about 10 ng/ml.”, “(0.33” for “(0.333”, “AD0077])” for “AD0077, as an alternative a Terbium-cryptate-labeled anti-mouse IgG antibody from Cisbio Bioassays can be used])”
as §2

Row | SMILES | IC50 (CDK2/CycE) | IC50 (CDK9/CycT1) | Selectivity high ATP CDK9 over high ATP CDK2: IC50 (high ATP CDK2)/IC50 (high ATP CDK9) (CDK9/CycT1)
1 | CSCc1cc2nc(c1)OC(C)CCCCOc1cc(ccc1F)-c1cc(ncc1F)N2 (racemic) [Example 18, (rac)-3,21-difluoro-14-methyl-10-[(methylsulfanyl)methyl]-13,19-dioxa-5,7,25-triazatetracyclo[18.3.1.1^2,6.1^8,12]hexacosa-1(24),2(26),3,5,8(25),9,11,20,22-nonaene] | > 20000 nM | 32 nM | >625
2 | CSCc1cc2nc(c1)OC(C)CCCCCOc1cc(ccc1F)-c1cc(ncc1F)N2 (racemic) [Example 23, (rac)-3,22-difluoro-14-methyl-10-[(methylsulfanyl)methyl]-13,20-dioxa-5,7,26-triazatetracyclo[19.3.1.1^2,6.1^8,12]heptacosa-1(25),2(27),3,5,8(26),9,11,21,23-nonaene] | > 20000 nM | 67 nM | >298
3 | CSCc1cc2nc(c1)OC(C)CCCOc1cc(ccc1F)-c1cc(ncc1F)N2 (single isomer, unassigned) [Example 12, 3,20-difluoro-14-methyl-10-[(methylsulfanyl)methyl]-13,18-dioxa-5,7,24-triazatetracyclo[17.3.1.1^2,6.1^8,12]pentacosa-1(23),2(25),3,5,8(24),9,11,19,21-nonaene] | 6450 nM | 4 nM | 1613
4 | CSCc1cc2nc(c1)OC(C)CCCOc1cc(ccc1F)-c1cc(ncc1F)N2 (single isomer, unassigned) [Example 13, 3,20-difluoro-14-methyl-10-[(methylsulfanyl)methyl]-13,18-dioxa-5,7,24-triazatetracyclo[17.3.1.1^2,6.1^8,12]pentacosa-1(23),2(25),3,5,8(24),9,11,19,21-nonaene] | 711 nM | 4 nM | 178
5 | CSCc1cc2nc(c1)OC(C)CCCCOc1cc(ccc1F)-c1cc(ncc1F)N2 (single isomer, unassigned) [Example 19, 3,21-difluoro-14-methyl-10-[(methylsulfanyl)methyl]-13,19-dioxa-5,7,25-triazatetracyclo[18.3.1.1^2,6.1^8,12]hexacosa-1(24),2(26),3,5,8(25),9,11,20,22-nonaene] | > 20000 nM | 138 nM | >145
6 | CSCc1cc2nc(c1)OC(C)CCCCOc1cc(ccc1F)-c1cc(ncc1F)N2 (single isomer, unassigned) [Example 20, 3,21-difluoro-14-methyl-10-[(methylsulfanyl)methyl]-13,19-dioxa-5,7,25-triazatetracyclo[18.3.1.1^2,6.1^8,12]hexacosa-1(24),2(26),3,5,8(25),9,11,20,22-nonaene] | 12600 nM | 23 nM | 548
7 | CSCc1cc2nc(c1)OC(C)CCCCCOc1cc(ccc1F)-c1cc(ncc1F)N2 (single isomer, unassigned) [Example 24, 3,22-difluoro-14-methyl-10-[(methylsulfanyl)methyl]-13,20-dioxa-5,7,26-triazatetracyclo[19.3.1.1^2,6.1^8,12]heptacosa-1(25),2(27),3,5,8(26),9,11,21,23-nonaene] | > 20000 nM | 68 nM | >294
8 | CSCc1cc2nc(c1)OC(C)CCCCCOc1cc(ccc1F)-c1cc(ncc1F)N2 (single isomer, unassigned) [Example 25, 3,22-difluoro-14-methyl-10-[(methylsulfanyl)methyl]-13,20-dioxa-5,7,26-triazatetracyclo[19.3.1.1^2,6.1^8,12]heptacosa-1(25),2(27),3,5,8(26),9,11,21,23-nonaene] | > 20000 nM | 93 nM | >215
